Test results reported in patent US8173636B2, “Hydroxylthienoquinolones and related compounds as anti-infective agents” (Achillion Pharmaceuticals, Inc., priority 2009, dated 2012).
Values after ≈ are worked out from the molar mass of the structure shown.

Key:
[1] = tested on: fluoroquinolone-resistant S. aureus ATCC 700699; assay: Minimum inhibitory concentration (MIC) assay, broth microdilution, MRSA; type: cell-based; settings: Staphylococcus aureus; fluoroquinolone-resistant S. aureus ATCC 700699; Table I; read-out: MRSA MIC
Method: (§1) The antimicrobial activity of the compounds of the invention may be evaluated by a number of methods, including the following visual minimum inhibitory concentration (MIC) assay. This assay determines the minimum concentration of compound required to inhibit growth of a bacterial strain.
(§2) Whole-cell antibacterial activity is determined by broth microdilution using conditions recommended by the NCCLS (see National Committee for Clinical Laboratory Standards. 2001. Performance standards for antimicrobial susceptibility testing: 11th informational supplement. Vol. 21, no. 1, M100-S11. National Committee for Clinical Laboratory Standards, Wayne, Pa.). Test compounds are dissolved in DMSO and diluted 1:50 in Mueller-Hinton II broth (Becton-Dickinson) to produce a 256 μg/ml stock solution. In a 96-well microtiter plate, the compound solution is serially two-fold diluted in Mueller-Hinton II broth. After the compounds are diluted, a 50 μl aliquot of the test organism (˜1×10^6 cfu/mL) is added to each well of the microtiter plate. The final test concentrations ranges from 0.125-128 μg/mL. Inoculated plates are incubated in ambient air at 37° C. for 18 to 24 hours. The organisms selected for testing included laboratory strains S. aureus ATCC 29213 and E. coli ATCC 25922 (strains purchased from American Type Culture Collection, Manassas, Va.) m, S. aureus FQR700699, and Paeruginosa 27853. The minimum inhibitory concentration (MIC) is determined as the lowest concentration of compound that inhibited visible growth of the test organism.

[2] = tested on: S. aureus ATCC 29213; assay: Minimum inhibitory concentration (MIC) assay, broth microdilution, MSSA; type: cell-based; settings: Staphylococcus aureus, Table I
Method: as §1, §2

MIC [1] [µg/mL]	MIC [2] [µg/mL]	SMILES
1 (≈ 2.33 µM)	0.13 (≈ 0.303 µM)	COc1c(N2CCN(C)CC2)c(F)cc2c(=O)c3c(O)c(C#N)sc3n(C3CC3)c12 [Cmp 26, 9-cyclopropyl-6-fluoro-3-hydroxyl-8-methoxy-7-(4-methylpiperazin-1-yl)-4-oxo-4,9-dihydrothieno[2,3-b] quinoline-2-carbonitrile]
8 (≈ 18.3 µM)	0.5 (≈ 1.15 µM)	COc1c(N2C[C@@H]3CCCN[C@@H]3C2)ccc2c(=O)c3c(O)c(C#N)sc3n(C3CC3)c12 [Cmp 27, 9-cyclopropyl-3-hydroxyl-8-methoxy-4-oxo-7-((4aS,7aS)-tetrahydro-1H-pyrrolo[3,4-b]pyridin-6(2H,7H,7aH)-yl)-4,9-dihydrothieno[2,3-b]quinoline-2-carbonitrile]
0.5 (≈ 1.17 µM)	0.03 (≈ 0.07 µM)	COc1c(N2CCC(N)CC2)c(F)cc2c(=O)c3c(O)c(C#N)sc3n(C3CC3)c12 [Cmp 29, 7-(4-aminopiperidin-1-yl)-9-cyclopropyl-6-fluoro-3-hydroxyl-8-methoxy-4-oxo-4,9-dihydrothieno[2,3-b]quinoline-2-carbonitrile]
0.13 (≈ 0.276 µM)	0.03 (≈ 0.0638 µM)	CCN[C@@H](C)[C@@H]1CCN(c2c(F)cc3c(=O)c4c(O)c(C#N)sc4n(C4CC4)c3c2OC)C1 [Cmp 30, 9-cyclopropyl-7-((R)-3-((S)-1-(ethylamino)ethyl)pyrrolidin-1-yl)-6-fluoro-3-hydroxyl-8-methoxy-4-oxo-4,9-dihydrothieno [2,3-b]quinoline-2-carbonitrile]
0.25 (≈ 0.548 µM)	0.03 (≈ 0.0657 µM)	CN[C@@H](C)[C@@H]1CCN(c2c(F)cc3c(=O)c4c(O)c(C#N)sc4n(C4CC4)c3c2OC)C1 [Cmp 31, 9-cyclopropyl-6-fluoro-3-hydroxyl-8-methoxy-7-((R)-3-((S)-1-(methylamino)ethyl)pyrrolidin-1-yl)-4-oxo-4,9-dihydrothieno [2,3-b]quinoline-2-carbonitrile]
0.5 (≈ 1.05 µM)	0.13 (≈ 0.274 µM)	COc1c(N2CC[C@@H](C(C)(C)N)C2)c(F)cc2c(=O)c3c(O)c(C(N)=O)sc3n(C3CC3)c12 [Cmp 32, (R)-7-(3-(2-aminopropan-2-yl)pyrrolidin-1-yl)-9-cyclopropyl-6-fluoro-3-hydroxyl-8-methoxy-4-oxo-4,9-dihydrothieno [2,3-b]quinoline-2-carboxamide]
0.5 (≈ 1.06 µM)	0.06 (≈ 0.128 µM)	COc1c(N2CC[C@@H]([C@H](C)N(C)C)C2)c(F)cc2c(=O)c3c(O)c(C#N)sc3n(C3CC3)c12 [Cmp 33, 9-cyclopropyl-7-((R)-3-((S)-1-(dimethylamino)ethyl)pyrrolidin-1-yl)-6-fluoro-3-hydroxyl-8-methoxy-4-oxo-4,9-dihydrothieno [2,3-b]quinoline-2-carbonitrile]
0.5 (≈ 1.06 µM)	0.06 (≈ 0.128 µM)	CNC(C)(C)[C@@H]1CCN(c2c(F)cc3c(=O)c4c(O)c(C#N)sc4n(C4CC4)c3c2OC)C1 [Cmp 34, (R)-9-cyclopropyl-6-fluoro-3-hydroxyl-8-methoxy-7-(3-(2-(methylamino)propan-2-yl)pyrrolidin-1-yl)-4-oxo-4,9-dihydrothieno[2,3-b]quinoline-2-carbonitrile]
0.5 (≈ 1.03 µM)	0.06 (≈ 0.124 µM)	CCNC(C)(C)[C@@H]1CCN(c2c(F)cc3c(=O)c4c(O)c(C#N)sc4n(C4CC4)c3c2OC)C1 [Cmp 35, (R)-9-cyclopropyl-7-(3-(2-(ethylamino)propan-2-yl)pyrrolidin-1-yl)-6-fluoro-3-hydroxyl-8-methoxy-4-oxo-4,9-dihydrothieno [2,3-b]quinoline-2-carbonitrile]
2 (≈ 4.13 µM)	0.25 (≈ 0.516 µM)	COc1c(N2CC[C@@H](C(C)(C)N(C)C)C2)c(F)cc2c(=O)c3c(O)c(C#N)sc3n(C3CC3)c12 [Cmp 36, (R)-9-cyclopropyl-7-(3-(2-(dimethylamino)propan-2-yl)pyrrolidin-1-yl)-6-fluoro-3-hydroxyl-8-methoxy-4-oxo-4,9-dihydrothieno[2,3-b]quinoline-2-carbonitrile]
0.25 (≈ 0.548 µM)	0.03 (≈ 0.0657 µM)	COc1c(N2CCCC(C(N)=O)C2)c(F)cc2c(=O)c3c(O)c(C#N)sc3n(C3CC3)c12 (stereo not drawn) [Cmp 37, 1-(2-cyano-9-cyclopropyl-6-fluoro-3-hydroxyl-8-methoxy-4-oxo-4,9-dihydrothieno[2,3-b]quinolin-7-yl)piperidine-3-carboxamide]
8 (≈ 17.6 µM)	0.5 (≈ 1.1 µM)	COc1c(N2C[C@@H]3CCCN[C@@H]3C2)c(F)cc2c(=O)c3c(O)c(C#N)sc3n(C3CC3)c12 [Cmp 38, 9-cyclopropyl-6-fluoro-3-hydroxyl-8-methoxy-4-oxo-7-((4aS,7aS)-tetrahydro-1H-pyrrolo[3,4-b]pyridin-6(2H,7H,7aH)-yl)-4,9-dihydrothieno[2,3-b]quinoline-2-carbonitrile]
1 (≈ 2.12 µM)	0.13 (≈ 0.276 µM)	CO/N=C1\CN(c2c(F)cc3c(=O)c4c(O)c(C#N)sc4n(C4CC4)c3c2OC)CC1CN (stereo not drawn) [Cmp 39, (Z)-7-(3-(aminomethyl)-4-(methoxyimino)pyrrolidin-1-yl)-9-cyclopropyl-6-fluoro-3-hydroxyl-8-methoxy-4-oxo-4,9-dihydrothieno[2,3-b]quinoline-2-carbonitrile]
1 (≈ 2.34 µM)	0.13 (≈ 0.305 µM)	COc1c(N2CC3CC2CN3)c(F)cc2c(=O)c3c(O)c(C#N)sc3n(C3CC3)c12 (stereo not drawn) [Cmp 41, 7-(2,5-diazabicyclo[2.2.1]heptan-2-yl)-9-cyclopropyl-6-fluoro-3-hydroxyl-8-methoxy-4-oxo-4,9-dihydrothieno [2,3-b]quinoline-2-carbonitrile]
1 (≈ 2.27 µM)	0.25 (≈ 0.568 µM)	COc1c(N2C[C@H]3CNC[C@H]3C2)c(F)cc2c(=O)c3c(O)c(C#N)sc3n(C3CC3)c12 [Cmp 42, 9-cyclopropyl-6-fluoro-7-((3aR,6aS)-hexahydropyrrolo [3,4-c]pyrrol-2(1H)-yl)-3-hydroxyl-8-methoxy-4-oxo-4,9-dihydrothieno[2,3-b]quinoline-2-carbonitrile]
8 (≈ 16.6 µM)	1 (≈ 2.08 µM)	COc1c(N2CCC(C(F)(F)F)CC2)c(F)cc2c(=O)c3c(n(C4CC4)c12)SC(C#N)C3=O (stereo not drawn) [Cmp 43, 9-cyclopropyl-6-fluoro-8-methoxy-3,4-dioxo-7-(4-(trifluoromethyl)piperidin-1-yl)-2,3,4,9-tetrahydrothieno [2,3-b]quinoline-2-carbonitrile]
0.13 (≈ 0.279 µM)	0.02 (≈ 0.0429 µM)	COc1c(N2CC[C@@H](c3ncn[nH]3)C2)c(F)cc2c(=O)c3c(n(C4CC4)c12)SC(C#N)C3=O (stereo partly drawn) [Cmp 44, 7-((R)-3-(1H-1,2,4-triazol-5-yl)pyrrolidin-1-yl)-9-cyclopropyl-6-fluoro-8-methoxy-3,4-dioxo-2,3,4,9-tetrahydrothieno [2,3-b]quinoline-2-carbonitrile]
0.5 (≈ 1.1 µM)	0.03 (≈ 0.0657 µM)	COc1c(N2CCC(C(N)=O)CC2)c(F)cc2c(=O)c3c(n(C4CC4)c12)SC(C#N)C3=O (stereo not drawn) [Cmp 45, 1-(2-cyano-9-cyclopropyl-6-fluoro-8-methoxy-3,4-dioxo-2,3,4,9-tetrahydrothieno[2,3-b]quinolin-7-yl)piperidine-4-carboxamide]
64 (≈ 145 µM)	4 (≈ 9.04 µM)	COc1c(N2CCC[C@H]2C(N)=O)c(F)cc2c(=O)c3c(n(C4CC4)c12)SC(C#N)C3=O (stereo partly drawn) [Cmp 46, (2S)-1-(2-cyano-9-cyclopropyl-6-fluoro-8-methoxy-3,4-dioxo-2,3,4,9-tetrahydrothieno[2,3-b]quinolin-7-yl)pyrrolidine-2-carboxamide]
4 (≈ 9.99 µM)	1 (≈ 2.5 µM)	C[C@H]1COc2c(N3CCNCC3)c(F)cc3c(=O)c4c(n1c23)SC(C#N)C4=O (stereo partly drawn) [Cmp 47, (1S)-5-fluoro-1-methyl-7,8-dioxo-4-(piperazin-1-yl)-2,7,8,9-tetrahydro-1H-[1,4]oxazino[2,3,4-ij]thieno[2,3-b] quinoline-9-carbonitrile]
0.25 (≈ 0.52 µM)	0.03 (≈ 0.0624 µM)	COc1c(N2CCC(c3ncn[nH]3)CC2)c(F)cc2c(=O)c3c(n(C4CC4)c12)SC(C#N)C3=O (stereo not drawn) [Cmp 48, 7-(4-(1H-1,2,4-triazol-5-yl)piperidin-1-yl)-9-cyclopropyl-6-fluoro-8-methoxy-3,4-dioxo-2,3,4,9-tetrahydrothieno [2,3-b]quinoline-2-carbonitrile]
0.5 (≈ 0.981 µM)	0.06 (≈ 0.118 µM)	COc1c(N2CC[C@@H](C(C)(C)NCCC#N)C2)c(F)cc2c(=O)c3c(n(C4CC4)c12)SC(C#N)C3=O (stereo partly drawn) [Cmp 49, 7-((R)-3-(2-(2-cyanoethylamino)propan-2-yl)pyrrolidin-1-yl)-9-cyclopropyl-6-fluoro-8-methoxy-3,4-dioxo-2,3,4,9-tetrahydrothieno[2,3-b]quinoline-2-carbonitrile]
1 (≈ 2.03 µM)	0.06 (≈ 0.122 µM)	COc1c(-c2ccnc(N3CCNCC3)c2)c(F)cc2c(=O)c3c(n(C4CC4)c12)SC(C#N)C3=O (stereo not drawn) [Cmp 50, 9-cyclopropyl-6-fluoro-8-methoxy-3,4-dioxo-7-(2-(piperazin-1-yl)pyridin-4-yl)-2,3,4,9-tetrahydrothieno [2,3-b]quinoline-2-carbonitrile]

SMILES	MIC [1] [µg/mL]	MIC [2] [µg/mL]
COc1c(C2=CCNCC2)c(F)cc2c(=O)c3c(O)c(C#N)sc3n(C3CC3)c12 [Cmp 40]	4 (≈ 9.72 µM)	0.5 (≈ 1.22 µM)
